Measurements taken from PubChem BioAssay (NCI).
Values joined by “and” are separate entries in the source; they are usually repeats but may differ in a detail not shown here. Equal entries are not always repeated.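 Briefly, cells in 96-well plates were exposed to five compound concentrations for 48 h, and endpoints were estimated by linear interpolation. GI50 is the concentration that inhibits growth by half. TGI is the concentration that stops growth completely.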

How the values were obtained:
Assay in all cases: growth of human tumour cells (NCI), 48 h
RPMI-8226 leukemia = system: RPMI-8226 leukemia
SK-OV-3 ovarian = system: SK-OV-3 ovarian
CAKI-1 renal = system: CAKI-1 renal
OVCAR-5 ovarian = system: OVCAR-5 ovarian
MOLT-4 leukemia = system: MOLT-4 leukemia
IGROV1 ovarian = system: IGROV1 ovarian
SNB-75 CNS = system: SNB-75 CNS
EKVX NSCLC = system: EKVX NSCLC
HCT-15 colon = system: HCT-15 colon
BT-549 breast = system: BT-549 breast

## CCCCCSc1ccc2nc(NC(=O)OCC)sc2c1
RPMI-8226 leukemia
  GI50: 1.04 µM
  TGI: > 100 µM
SK-OV-3 ovarian
  GI50: 0.535 µM
  TGI: > 100 µM
CAKI-1 renal
  GI50: 0.626 µM
  TGI: > 100 µM
OVCAR-5 ovarian
  GI50: 2.73 µM
  TGI: > 100 µM
MOLT-4 leukemia
  GI50: 0.85 µM
  TGI: > 100 µM
IGROV1 ovarian
  GI50: 0.945 µM
  TGI: > 100 µM
SNB-75 CNS
  GI50: 0.41 µM
  TGI: 20.2 µM
EKVX NSCLC
  GI50: 0.557 µM
  TGI: > 100 µM
HCT-15 colon
  GI50: 0.384 µM
  TGI: > 100 µM
BT-549 breast
  GI50: 0.487 µM
  TGI: > 100 µM

## COC(=O)c1c2c(c(C)[n+]([O-])c1C)C(=O)C(NCc1ccccc1)=CC2=O
RPMI-8226 leukemia
  GI50: 2.61 µM
  TGI: 10.1 µM
SK-OV-3 ovarian
  GI50: 2.81 µM
  TGI: 9.63 µM
CAKI-1 renal
  GI50: 2.84 µM
  TGI: 14.3 µM
OVCAR-5 ovarian
  GI50: 2.58 µM
  TGI: 6.22 µM
MOLT-4 leukemia
  GI50: 2.21 µM
  TGI: 5.6 µM
IGROV1 ovarian
  GI50: 1.71 µM
  TGI: 4.42 µM
SNB-75 CNS
  GI50: 3.62 µM
  TGI: 13.9 µM
EKVX NSCLC
  GI50: 2.09 µM
  TGI: 5.41 µM
HCT-15 colon
  GI50: 1.7 µM
  TGI: 4.44 µM
BT-549 breast
  GI50: 4.19 µM
  TGI: 16 µM

## CC(=O)OCC1OC(SC2=N/C(=C\c3ccc(Br)s3)C(=O)N2c2ccccc2)C(OC(C)=O)C(OC(C)=O)C1OC(C)=O (centres undefined)
RPMI-8226 leukemia
  GI50: 37.7 µM and 7.96 µM
  TGI: > 100 µM and 61 µM
CAKI-1 renal
  GI50: 13.4 µM and 85.7 µM
  TGI: 32.5 µM and > 100 µM
OVCAR-5 ovarian
  TGI: > 100 µM
MOLT-4 leukemia
  GI50: > 100 µM and 37.7 µM
  TGI: > 100 µM
IGROV1 ovarian
  GI50: 87.4 µM and 41.7 µM
  TGI: > 100 µM
SNB-75 CNS
  GI50: 25.1 µM and > 100 µM
  TGI: 61.4 µM and > 100 µM
EKVX NSCLC
  TGI: > 100 µM
HCT-15 colon
  TGI: > 100 µM
BT-549 breast
  TGI: > 100 µM

## CC(=O)O[C@@H]1c2c(c3c(=O)c4cccc(O)c4c(=O)c=3c2=[N+]=[N-])[C@H](OC(C)=O)[C@@H](OC(C)=O)[C@]1(C)O
RPMI-8226 leukemia
  TGI: 0.361 µM and 0.394 µM
SK-OV-3 ovarian
  GI50: 1.01 µM
  TGI: 2.11 µM and 2 µM
CAKI-1 renal
  GI50: 0.182 µM
  TGI: 1.04 µM and 0.374 µM
OVCAR-5 ovarian
  GI50: 0.613 µM
  TGI: 1.23 µM and 1.35 µM
MOLT-4 leukemia
  GI50: 0.0675 µM
  TGI: 0.275 µM and 0.358 µM
IGROV1 ovarian
  GI50: 0.3 µM
  TGI: 0.987 µM and 1.15 µM
SNB-75 CNS
  GI50: 0.582 µM
  TGI: 0.851 µM and 1.69 µM
EKVX NSCLC
  GI50: 0.122 µM
  TGI: 1.38 µM and 0.663 µM
HCT-15 colon
  GI50: 0.135 µM
  TGI: 0.476 µM and 0.298 µM
BT-549 breast
  TGI: 1.33 µM

## O=C1CN=C(c2ccc[nH]2)c2cc(Cl)ccc2N1
RPMI-8226 leukemia
  GI50: 3.83 µM
  TGI: > 100 µM
SK-OV-3 ovarian
  GI50: > 100 µM
  TGI: > 100 µM
CAKI-1 renal
  GI50: > 100 µM
  TGI: > 100 µM
OVCAR-5 ovarian
  GI50: > 100 µM
  TGI: > 100 µM
MOLT-4 leukemia
  GI50: > 100 µM
  TGI: > 100 µM
IGROV1 ovarian
  GI50: > 100 µM
  TGI: > 100 µM
SNB-75 CNS
  GI50: > 100 µM
  TGI: > 100 µM
EKVX NSCLC
  GI50: > 100 µM
  TGI: > 100 µM
HCT-15 colon
  GI50: 19.1 µM
  TGI: > 100 µM
BT-549 breast
  GI50: 53.3 µM
  TGI: > 100 µM

## CCCCN(CCCC)P(=O)(Oc1ccccc1)Oc1ccccc1
RPMI-8226 leukemia
  GI50: 5.12 µM
  TGI: 26.8 µM
SK-OV-3 ovarian
  GI50: 14.9 µM
  TGI: 33.6 µM
CAKI-1 renal
  GI50: 2.42 µM
  TGI: 11.3 µM
OVCAR-5 ovarian
  GI50: 13.3 µM
  TGI: 28.3 µM
MOLT-4 leukemia
  GI50: 6.18 µM
  TGI: 38.4 µM
SNB-75 CNS
  GI50: 11.3 µM
  TGI: 27.3 µM
EKVX NSCLC
  GI50: 3.39 µM
  TGI: 17.2 µM
HCT-15 colon
  GI50: 4.73 µM
  TGI: 22 µM
BT-549 breast
  GI50: 14.9 µM
  TGI: 28.3 µM

## CN1CCc2ccccc2C1Cc1ccccc1NC(=O)c1sc2ccccc2c1Cl (centres undefined)
RPMI-8226 leukemia
  TGI: > 100 µM
SK-OV-3 ovarian
  TGI: > 100 µM
CAKI-1 renal
  TGI: > 100 µM
MOLT-4 leukemia
  TGI: > 100 µM
IGROV1 ovarian
  TGI: > 100 µM
SNB-75 CNS
  TGI: > 100 µM
EKVX NSCLC
  TGI: > 100 µM
HCT-15 colon
  TGI: > 100 µM
BT-549 breast
  TGI: > 100 µM
